Results from patent US20050119288A1, “Dosing schedule for a novel anticancer agent” (Pfizer Inc, priority 2003, published 2005).
Where two headings read alike, the source gives them in different places.

Experiments:
[1] = molecular target: erbB2 receptor autophosphorylation (Homo sapiens, UniProt P04626); assay: p-erbB2 reduction in SK-OV-3 tumors by ELISA; type: in vivo; settings: 0.5 hr post-dosing on day 18
Experimental: SK-OV-3 cells obtained from ATCC (Rockville, Md.) were grown in McCoy's medium containing 10% fetal bovine serum and pen/strep. Exponentially growing cells were harvested and inoculated SC (5 million cells/animal) into female athymic mice. The tumor measurements and body weight changes were obtained on days 1, 3, 6, 10, 13 and 18. Tumor volume was calculated by the following formula: Tumor volume (mm^3)═(W×W)/2×L (L=length & W=width). Blood samples (˜50 μl) were isolated at 0.5, 1, 2, 4 and 8 hrs after dosing on day 18 for PK-analysis. Tumors were isolated at 0.5 hr post-dosing on day 18 for PD-analysis by ELISA.

[2] = Pharmacokinetics in BT-474 tumor-bearing mice; type: in vivo; settings: for Cave0-4 h: PO, day 22; for AUC(0-t) / Cmax: female, athymic, mouse, blood, po; for Cmax: day 22, read-out: Cmax 0.5 h
Experimental: Exponentially growing BT-474 cells (RPMI 1640 with 10 mM HEPES, 10% FBS, and pen/strep [Gibco]) were harvested and inoculated SC (5 million cells/animal) into female athymic mice. Trochar pieces of BT-474 tumors were then implanted into the right flank of animals. BT-474 tumor bearing mice (50-320 mm^3 in size, N=40) were randomized in 7 groups consisting 5-6 animals each. Animals were treated with vehicle (PO, BID) or the test compound (PO, QD or BID) as described in Table 4. The tumor measurements and body weight changes were obtained on days 1, 6, 11, 15 and 22. Tumor volume was calculated by the following formula: Tumor volume (mm^3)═(W×W)/2×L (L=length & W=width). Blood samples (˜50 μl) were isolated at 0.5, 1, 2, 4 and 8 hrs after dosing on day 22 for PK-analysis. Tumors were isolated at 0.5 hr post-dosing on day 22 for PD-analysis by ELISA.

MDA-MB-453 tumors = assay: MDA-MB-453 xenograft tumor growth in athymic mice; type: in vivo, human; settings: PO; for % Growth inhibition: 29 days
Excerpt: The in vivo anti-tumor activity of the compounds for use in the methods of the present invention can be determined by the amount of inhibition of tumor growth by a test compound relative to a control. The tumor growth inhibitory effects of various compounds can be measured according to the method of Corbett T. H., et al., “Tumor Induction Relationships in Development of Transplantable Cancers of the Colon in Mice for Chemotherapy Assays, with a Note on Carcinogen Structure”, Cancer Res., 35, 2434-2439 (1975) and Corbett T. H., et al., “A Mouse Colon-tumor Model for Experimental Therapy”, Cancer Chemother. Rep. (Part 2)”, 5, 169-186 (1975), with slight modifications. Tumors can be induced in the left flank of mice by subcutaneous (sc) injection of 1-5 million log phase cultured tumor cells suspended in 0.1 ml RPMI 1640 medium. After sufficient time has elapsed for the tumors to become palpable (˜100-150 mm^3 in size/5-6 mm in diameter) the test animals (athymic female mice) are treated with test compound (formulated at a concentration of 10 to 15 mg/ml in 5 Gelucire or 0.5% methyl cellulose) by the intravenous (iv) or oral (po) route of administration once or twice daily for 7 to 29 consecutive days. In order to determine an anti-tumor effect, the tumor is measured in millimeters with a Vernier caliper across two diameters and the tumor size (mm^3) is calculated using the formula: Tumor size (mm^3)=(W×W)/2×L (L=length and W=width), according to the methods of Geran, R. I., et al. “Protocols for Screening Chemical Agents and Natural Products Against Animal Tumors and Other Biological Systems”, Third Edition, Cancer Chemother. Rep., 3, 1-104 (1972). Results are expressed as percent inhibition, according to the formula: Inhibition Growth (%)=[100-{(% Growth of Treated/% Growth of Control)×100}]. The flank site of tumor implantation provides reproducible dose/response effects for a variety of chemotherapeutic agents, and the method of measurement (tumor diameter) is a reliable method for assessing tumor growth rates.
Study Design: Exponentially growing MDA-MB-453 cells (DMEM/F12 with 10% FBS, and pen/strep [Gibco]) were harvested and inoculated SC (5 million cells/animal) into female athymic mice. MDA-MB-453 tumor bearing mice (˜100 mm^3 in size, N=64) were randomized in 8 groups consisting 8 animals each. Animals were treated with vehicle (PO, QD or BID) or the test compound (PO, QD or BID) as described in Table 6. The tumor measurements and body weight changes were obtained on days 1, 3, 7, 10, 14, 17, 21, 24, and 29. Tumor volume was calculated by the following formula: Tumor volume (mm^3)═(W×W)/2×L (L=length & W=width). Blood samples (˜50 μl) were isolated at 0.5, 1, 2, 4 and 8 hrs after dosing on day 29 for PK-analysis. Tumors were isolated at 0.5 hr post-dosing on day 29 for PD-analysis by ELISA.
Statistical Analysis: ANOVA was conducted on the percentage growth data and planned comparisons were conducted between like-doses. The data were log transformed for the analysis due to the distribution of the values. The Dunnett-Tamahane procedure was used for the multiple comparison analysis.

[3] = Plasma concentration in FRE/erbB2 tumor-bearing mice
Experimental: The test compound was either administered using tail vein infusion or orally.
A 1.15 mg/ml solution of the test compound was infused IV at 550 μl/hr for 2 minute ramped infusions followed by 50 μl/hr for 15 min or 4 hour daily infusions. (Projection was based on Cl of the test compound). Athymic female mice bearing FRE/erbB2 tumors (˜100 mm^3 in size) were treated with vehicle, the test compound orally or the test compound intravenously. […] The study was carried out for 7 days. Plasma and tumor samples were isolated for PK and PD analysis at the termination of study.

Sequence of erbB2 receptor autophosphorylation (P04626 23-1255): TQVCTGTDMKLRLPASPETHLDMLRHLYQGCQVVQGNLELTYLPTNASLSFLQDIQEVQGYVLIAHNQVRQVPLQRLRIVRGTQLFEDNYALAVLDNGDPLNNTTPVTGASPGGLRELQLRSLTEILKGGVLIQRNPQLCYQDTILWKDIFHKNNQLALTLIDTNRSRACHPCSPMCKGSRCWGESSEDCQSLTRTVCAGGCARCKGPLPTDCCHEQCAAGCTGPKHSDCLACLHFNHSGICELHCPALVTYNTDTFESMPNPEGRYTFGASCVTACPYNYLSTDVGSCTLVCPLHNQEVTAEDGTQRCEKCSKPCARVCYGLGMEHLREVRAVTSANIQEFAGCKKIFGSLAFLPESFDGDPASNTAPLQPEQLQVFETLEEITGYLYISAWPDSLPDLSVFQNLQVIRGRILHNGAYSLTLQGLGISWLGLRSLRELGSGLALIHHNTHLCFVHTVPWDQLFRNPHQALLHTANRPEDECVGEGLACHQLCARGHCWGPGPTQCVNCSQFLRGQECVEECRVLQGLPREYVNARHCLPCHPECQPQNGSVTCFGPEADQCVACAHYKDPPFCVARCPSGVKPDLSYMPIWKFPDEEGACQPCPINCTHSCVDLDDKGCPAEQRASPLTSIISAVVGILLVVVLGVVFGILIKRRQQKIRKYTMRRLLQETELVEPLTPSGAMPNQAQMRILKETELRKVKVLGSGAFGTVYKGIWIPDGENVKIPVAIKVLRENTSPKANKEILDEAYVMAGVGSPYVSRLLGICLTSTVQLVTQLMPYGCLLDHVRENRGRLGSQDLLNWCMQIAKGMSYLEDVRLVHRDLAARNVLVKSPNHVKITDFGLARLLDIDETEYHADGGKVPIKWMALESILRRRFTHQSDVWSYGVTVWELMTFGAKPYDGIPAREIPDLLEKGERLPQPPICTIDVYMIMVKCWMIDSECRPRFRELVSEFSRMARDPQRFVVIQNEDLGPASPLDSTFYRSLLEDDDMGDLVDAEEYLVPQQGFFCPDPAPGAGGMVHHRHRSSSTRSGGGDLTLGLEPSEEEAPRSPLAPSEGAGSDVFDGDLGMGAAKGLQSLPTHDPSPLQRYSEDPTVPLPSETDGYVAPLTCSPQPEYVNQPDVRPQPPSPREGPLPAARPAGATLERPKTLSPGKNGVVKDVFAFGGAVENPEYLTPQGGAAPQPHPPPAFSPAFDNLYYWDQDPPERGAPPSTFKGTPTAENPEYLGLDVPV

Work on COCC(=O)NC/C=C/c1ccc2ncnc(Nc3ccc(Oc4ccc(C)nc4)c(C)c3)c2c1 [Test Compound, E-2-Methoxy-N-(3-{4-(3-methyl-4-(6-methyl-pyridin-3-yloxy)-phenylamino)-quinazolin-6-yl}-allyl)-acetamide] yielded an inhibition in vivo at 25 mg/kg ([1]; SK-OV-3, po, 0.5 h, PO, BID 25 mg/kg (Total Daily Dose = 50 mg/kg)) of 20%, an inhibition in vivo at 50 mg/kg ([1]; SK-OV-3, po, 0.5 h, PO, BID 50 mg/kg (Total Daily Dose = 100 mg/kg)) of 24% and an inhibition in vivo at 100 mg/kg ([1]; SK-OV-3, po, 0.5 h, PO, BID 100 mg/kg (Total Daily Dose = 200 mg/kg)) of 62%. It also gave an inhibition in vivo at 50 mg/kg ([1]; SK-OV-3, po, 0.5 h, PO, QD 50 mg/kg) of 14%, an inhibition in vivo at 100 mg/kg ([1]; SK-OV-3, po, 0.5 h, PO, QD 100 mg/kg) of 75% and an inhibition in vivo at 200 mg/kg ([1]; SK-OV-3, po, 0.5 h, PO, QD 200 mg/kg) of 90%. For the same molecule, the “reduction of erbB2 receptor autophosphorylation” value ([1]; span over 50 mg/kg QD and 25 mg/kg BID) was 14-20%, the Cave0-4 h ([2]; 15 mg/kg, BID) was 120 ng/mL and the Cave0-4 h ([2]; 30 mg/kg, BID, estimated based on the extrapolated concentration at 4 hr from 2 hr and 8 hr exposures) was 360 ng/mL. For the same molecule, the Cave0-4 h ([2]; 30 mg/kg, QD, estimated based on the extrapolated concentration at 4 hr from 2 hr and 8 hr exposures) was 320 ng/mL, the Cave0-4 h ([2]; 50 mg/kg, BID) was 1320 ng/mL and the Cave0-4 h ([2]; 50 mg/kg, QD, estimated based on the extrapolated concentration at 4 hr from 2 hr and 8 hr exposures) was 1060 ng/mL. It also gave an AUC(0-t) ([2]; 15 mg/kg, BID, day 22, read-out: AUC0-4 h) of 480 ng·h/mL, a Cmax ([2]; 15 mg/kg, BID) of 616 ng/mL and a Cmax ([2]; 15 mg/kg, QD) of 250 ng/mL. For the same molecule, the AUC(0-t) ([2]; 30 mg/kg, BID, day 22, estimated based on the extrapolated concentration at 4 hr from 2 hr and 8 hr exposures, read-out: AUC0-4 h) was 1440 ng·h/mL, the Cmax ([2]; 30 mg/kg, BID) was 1570 ng/mL and the AUC(0-t) ([2]; 30 mg/kg, QD, day 22, estimated based on the extrapolated concentration at 4 hr from 2 hr and 8 hr exposures, read-out: AUC0-4 h) was 1280 ng·h/mL. For the same molecule, the Cmax ([2]; 30 mg/kg, QD) was 1800 ng/mL, the AUC(0-t) ([2]; 50 mg/kg, BID, day 22, read-out: AUC0-4 h) was 5280 ng·h/mL and the Cmax ([2]; 50 mg/kg, BID) was 6170 ng/mL. For the same molecule, the AUC(0-t) ([2]; 50 mg/kg, QD, day 22, estimated based on the extrapolated concentration at 4 hr from 2 hr and 8 hr exposures, read-out: AUC0-4 h) was 4220 ng·h/mL, the Cmax ([2]; 50 mg/kg, QD) was 5890 ng/mL and the “% Growth inhibition” value (MDA-MB-453 tumors; BID 25 mg/kg (Total Daily Dose = 50 mg/kg)) was 19%. For the same molecule, the “Tumor volume Day 1 (Mean ± SE)” value (MDA-MB-453 tumors; BID 25 mg/kg) was 107 ± 4 mm^3, the “Tumor volume Day 29 (Mean ± SE)” value (MDA-MB-453 tumors; BID 25 mg/kg) was 252 ± 24 mm^3 and the “% Growth inhibition” value (MDA-MB-453 tumors; BID 50 mg/kg (Total Daily Dose = 100 mg/kg)) was 66%. The “Tumor volume Day 1 (Mean ± SE)” value (MDA-MB-453 tumors; BID 50 mg/kg) was 107 ± 4 mm^3, the “Tumor volume Day 29 (Mean ± SE)” value (MDA-MB-453 tumors; BID 50 mg/kg) was 164 ± 13 mm^3 and the “% Growth inhibition” value (MDA-MB-453 tumors; BID 100 mg/kg (Total Daily Dose = 200 mg/kg)) was 83%. The “Tumor volume Day 1 (Mean ± SE)” value (MDA-MB-453 tumors; BID 100 mg/kg) was 107 ± 4 mm^3, the “Tumor volume Day 29 (Mean ± SE)” value (MDA-MB-453 tumors; BID 100 mg/kg) was 137 ± 6 mm^3 and the “% Growth inhibition” value (MDA-MB-453 tumors; QD 50 mg/kg) was 38%. The “Tumor volume Day 1 (Mean ± SE)” value (MDA-MB-453 tumors; QD 50 mg/kg) was 107 ± 4 mm^3, the “Tumor volume Day 29 (Mean ± SE)” value (MDA-MB-453 tumors; QD 50 mg/kg) was 213 ± 19 mm^3 and the “% Growth inhibition” value (MDA-MB-453 tumors; QD 100 mg/kg) was 63%. The “Tumor volume Day 1 (Mean ± SE)” value (MDA-MB-453 tumors; QD 100 mg/kg) was 107 ± 4 mm^3, the “Tumor volume Day 29 (Mean ± SE)” value (MDA-MB-453 tumors; QD 100 mg/kg) was 175 ± 14 mm^3 and the “% Growth inhibition” value (MDA-MB-453 tumors; QD 200 mg/kg) was 100%. The “Tumor volume Day 1 (Mean ± SE)” value (MDA-MB-453 tumors; QD 200 mg/kg) was 107 ± 4 mm^3, the “Tumor volume Day 29 (Mean ± SE)” value (MDA-MB-453 tumors; QD 200 mg/kg) was 108 ± 9 mm^3 and the “Plasma Concentration (Mean ± SE)” value ([3]; 10.7 mg/kg IV, 4 hr/day) was 473 ± 141 ng/mL. For the same molecule, the “Plasma Concentration (Mean ± SE)” value ([3]; 10.7 mg/kg IV, 4 hr/day, listed as test compound) was about 500 ng/mL and the “Plasma Concentration (Mean ± SE)” value ([3]; 25 mg/kg PO, QD, 0.5 h post-dosing on day 7) was 1460 ± 170 ng/mL.
